The test system of series [1] is normal human dermal fibroblasts (NHDF). In words: UV-induced mtDNA common deletion (Cdel) in fibroblasts, PCR. The series is classed as cell-based. The following applies: for reduction in Cdel incidence compared to the irradiated control group: UV-irradiated NHDF; for Nest PCR - deleted mtDNA, % Irradiated control / Nest PCR - deleted mtDNA, Relative Intensity / PCR on mtDNA (262 bp) long fragment, % Irradiated control / PCR on mtDNA (262 bp) long fragment, Relative Intensity: irradiated conditions UVA 4 J/cm^2. As for the experimental part:
(§1) The normal human dermal fibroblasts (NHDF) were incubated for 16 days, with ultraviolet light exposure three times a day. For the experimental group the cells were treated using medium containing 0.5, 3, 30 μM of ergothioneine.
(§2) Deletions in mtDNA were quantified using qPCR. The 522 bp fragment represents the amount of mtDNA with deletions, whereas the 262 bp fragment reflects the quantity of intact mtDNA, Relative intensity (AU) is typically used to describe the intensity of the fluorescent signal, and its magnitude is proportional to the number of fragments measured. And cell activity was analyzed using WST-8.
FIG. 2 depicts the effect of compound ergothioneine on the UV-induced mtDNA common deletion (Cdel) in fibroblasts—migration of PCR products (262 bp fragment=total mtDNA without Cdel; 522 bp fragment=mtDNA with Cdel) on 1.5% agarose gel.

Series [2] shares this test system. Nature of the series: Cell viability (WST-8) of UVA-irradiated fibroblasts. The series is classed as cell-based. The following applies: light or radiation study, irradiated conditions UVA 4 J/cm^2, read-out: Viability (WST-8), % Irradiated control. As for the experimental part: as §1, §2
The conditions of series [3]: animals and humans, even at high doses; cited from earlier work.

Structures are written as SMILES.

Regarding `C[N+](C)(C)[C@@H](Cc1c[nH]c(=S)[nH]1)C(=O)[O-]` [Ergothioneine, ergothioneine], in series [1] (0.5 μM), the “reduction in Cdel incidence compared to the irradiated control group” value (shortened to “reduction in Cdel incidence”) stood at 56%; the “Nest PCR - deleted mtDNA, % Irradiated control” value (shortened to “Nest PCR … % Irradiated control”) was 56%; the “Nest PCR - deleted mtDNA, Relative Intensity” value (shortened to “Nest PCR … Relative Intensity”) is on record as 45153 AU; the “PCR on mtDNA (262 bp) long fragment, % Irradiated control” value (“PCR on mtDNA … % Irradiated control” for short) came to 120%. In addition, the “PCR on mtDNA (262 bp) long fragment, Relative Intensity” value (“PCR on mtDNA … Relative Intensity” below) in series [1] (0.5 μM) turned out to be 663197 AU. Further, in series [1] (3 μM), the “reduction in Cdel incidence” value was determined as 67%; the “Nest PCR … % Irradiated control” value was found to be 33%; the “Nest PCR … Relative Intensity” value came out at 26636 AU; the “PCR on mtDNA … % Irradiated control” value was determined as 110%. The “PCR on mtDNA … Relative Intensity” value in series [1] (3 μM) turned out to be 606349 AU. In series [1] (30 μM), the “reduction in Cdel incidence” value is 75%; the “Nest PCR … % Irradiated control” value was found to be 25%; the “Nest PCR … Relative Intensity” value stood at 20645 AU; the “PCR on mtDNA … % Irradiated control” value is recorded as 118%. In series [1] (30 μM), the “PCR on mtDNA … Relative Intensity” value is 652512 AU. Also, the viability at 0.5 µM in series [2] (0.5 μM) was found to be 100%. Further, the viability at 3 µM in series [2] (3 μM) is 96%. Moreover, in series [2] (30 μM), the viability at 30 µM stood at 96%. In series [3], the “toxicity or adverse effects associated with administration” value is “no toxicity or adverse effects”.

A word on the viability: it is a per cent measure of how many cells are alive, often set against a control.

The values are drawn from US20240382460A1, “Compositions and Methods for Preventing or Improving Premature Skin Aging” (NANJING NUTRABUILDING BIO-TECH CO., LTD., priority 2022, published 2024).
